This is an account of results in the RepoRT retention time repository (doi:10.1021/acs.analchem.7b00925).

The nature of this data set: HILIC, Merck SeQuant ZIC-HILIC, 100 × 2.1 mm, 3.5 µm, 25 °C, 0.3 mL/min, estimated dead time 0.73 min; A: water + 0.1% formic acid, pH 3; B: acetonitrile + 0.1% formic acid, pH 3; gradient (min/%B) 0/95 1.5/95 13.5/40 15.5/40 29.7/25 33.5/25 34.5/95 41.5/95. The conditions noted are these: stereoisomer not certain.
For the compound `COC(=O)C(Cc1ccccc1)NC(=O)C(N)CC(=O)O` (stereo not given) [Aspartame], the LC retention time was 5.89 min.

As for `CC1=NCCC(C(=O)O)N1` (stereo not given) [Ectoine], the LC retention time was 6.85 min.

As to `CC(=O)NCCCCN` [N-acetylputrescine], the LC retention time is 8.56 min.

For the compound `CNCC(=O)O` [Sarcosine], the LC retention time was 7.67 min.

For `O=C(O)CNC(=O)c1ccccc1O` [o-Hydroxyhippuric acid], the LC retention time is 1.44 min.

On to `Nc1ccccc1O` [2-Aminophenol], for which the LC retention time was 6 min.

Regarding `NCC(=O)CCC(=O)O` [5-aminolevulinic acid], the LC retention time is 8.57 min.

Consider `Nc1ccc(C(=O)O)cc1` [p-Aminobenzoic acid], for which the LC retention time was 1.53 min.

Take `CS(=O)CCC(N)C(=O)O` (stereo not given) [Methionine sulfoxide]: the LC retention time is 8.59 min.

On to `NCC(O)c1ccc(O)cc1` (stereo not given) [Octopamine], for which the LC retention time is 7.57 min.

As for `O=C(O)[C@H]1NCCC1O` (stereo not given in full) [3-hydroxyproline], the LC retention time was 8.12 min.

For the compound `Cc1ncc(CO)c(CN)c1O` [Pyridoxamine], the LC retention time was 13.1 min.

Take `OCC1OC(O)C(O)C(O)C1O` (stereo not given) [Glucose]: the LC retention time was 6.86 min.

As to `NCC(=O)NCC(=O)O` [Glycyl-glycine], the LC retention time is 9.29 min.

For the compound `CSCC1OC(n2cnc3c(N)ncnc32)C(O)C1O` (stereo not given) [Methylthioadenosine], the LC retention time is 4.81 min.

With `Nc1cccc(C(=O)O)c1` [m-Aminobenzoic acid], the LC retention time is 2.09 min.

`Cn1c(=O)[nH]c2[nH]c(=O)n(C)c2c1=O` [1,7-dimethyluric acid]: the LC retention time is 3.78 min.

In the case of `CC1CCCN1` (stereo not given) [2-Methylpyrrolidine], the LC retention time was 6.72 min.

Turning to `O=C(O)Cc1c[nH]c2ccccc12` [3-Indoleacetic acid], the LC retention time is 1.26 min.

Take `NC(CS)C(=O)O` (stereo not given) [Cysteine]: the LC retention time was 7.62 min.

In the case of `CC(C)CC(NC(=O)C(C)N)C(=O)O` (stereo not given) [Alanyl-leucine], the LC retention time is 6.54 min.

On to `Nc1ccc(C(=O)O)c(O)c1` [4-Aminosalicylic acid], for which the LC retention time was 1.3 min.

In the case of `NC1C(O)OC(CO)C(O)C1O` (stereo not given) [Glucosamine], the LC retention time is 10.5 min.

On to `[NH3+]CCCCCC(=O)[O-]` [Aminocaproate], for which the LC retention time was 7.15 min.

`CC(C)(C)NCC(O)c1ccc(O)c(CO)c1` (stereo not given) [Salbutamol]: the LC retention time was 6.57 min.
